From patent US11357851B2, “Uses of myostatin antagonists, combinations containing them and uses thereof” (Novartis AG, priority 2015, dated 2022)

How the values were obtained:
[1] = tested on: CT-26 mouse colon cancer-induced cachexia; test: Therapeutic intervention study in CT-26 mouse colon cancer-induced cachexia (tumor-bearing mice); type: in vivo; details: for CT-26-induced loss in body weight: day 14, CDD866 twice weekly; for CT-26-induced muscle weight loss: tibialis anterior, gastrocnemius-soleus-plantaris complex, quadriceps; for body weight loss (of initial body weight): tumor-bearing animals, ten days after starting treatment, CDD866 20 mg/kg s.c. once weekly, cisplatin 1 mg/kg i.p. twice a week
Procedure: (§1) Adult male Balb/cJRj mice at the age of 11 to 12 weeks were purchased from Janvier Laboratories (Le Genest St Isle, France). Mice were acclimated to the facility for 7 days. Animals were housed in groups of 5 or less animals at 25° C. with a 12:12 h light-dark cycle. They were fed a standard laboratory diet containing 18.2% protein and 3.0% fat with an energy content of 15.8 MJ/kg (NAFAG 3890, Kliba, Basel, Switzerland). Food and water were provided ad libitum.
(§2) Mouse colon cancer cell line CT-26 was cultured in RPMI 1640 medium supplemented with 10% heat inactivated fetal bovine serum and antibiotic-antimycotic solution at 37° C. with 5% CO2. CT-26 cells were harvested by treatment with Accutase® (PAA Laboratories GmbH, Pasching, Austria) and suspended in a solution containing 50% PBS and 50% BD Matrigel™ Matrix without phenol red (catalog number 356237, BD Biosciences, Bedford, Mass., USA). A 0.1 mL of cell suspension containing 3×10^5 cells was inoculated subcutaneously into the left flank of mice. When tumors were palpable, mice bearing tumors with acceptable morphology and size were randomized to produce groups balanced with respect to mean and range of tumor sizes and body weight. Treatments were initiated on the day of randomization. Therapeutic intervention study was conducted to evaluate the effect of CDD866, either alone or in combination with anti-cancer agents. CDD866 was administered at 20 mg/kg s.c., once or twice weekly in a volume of 5 mL/kg. Cisplatin was administered at 1 mg/kg i.p. twice a week. Everolimus was administered at 5 mg/kg p.o. once daily. In the combination groups, cisplatin or everolimus treatment was combined with once or twice weekly subcutaneous treatment of CDD866, respectively. Body weight and tumor volume were measured 2 to 3 times per week. At the end of the experiment, the mice were euthanized with CO2, and tumor, tibialis anterior, gastrocnemius-soleus-plantaris complex, quadriceps were collected and weighed.
(§3) Values are expressed as mean±SEM. Statistical analysis was carried out using Sidak's multiple comparison test following analysis of variance to compare the treatment groups to the control groups (non-tumor and tumor-bearing), anti-cancer agent alone (cisplatin or everolimus) or CDD866 alone in the therapeutic intervention study, and Dunn's multiple comparisons test for time-to-progression study. Differences were considered to be significant when the probability value was <0.05. Statistical analyses were performed by GraphPad Prism (GraphPad Software, Inc., La Jolla, Calif., USA). Body weight was expressed as % change from day 0 as the start of treatment. Tumor volumes in cubic mm were calculated according to the formula (length×width^2)/2. Muscle weight was normalized to the body weight on the day of cell inoculation (initial body weight) and then expressed as % change from the non-tumor control group.

[2] = tested on: non-tumor bearing mice; test: Therapeutic intervention study, non-tumor bearing (healthy control) mice; type: in vivo, mouse; details: for weight of tibialis anterior, gastrocnemius-soleus-plantaris complex and quadriceps muscles in non-tumor bearing group / body weight gain in non-tumor bearing group: everolimus study; for body weight gain in non-tumor bearing group: up to day 14, CDD866 20 mg/kg s.c. twice weekly, everolimus 5 mg/kg p.o. once daily; for body weight in healthy control animals: cisplatin study, non-tumor mice
Procedure: as §1, §2, §3

[3] = tested on: CT-26 mouse colon cancer-induced cachexia; test: Time-to-progression study in CT-26 mouse colon cancer cachexia; type: in vivo; details: for time-to-progression (median days elapsed until an interruption criterion): everolimus combination study, after randomization and treatment start, CDD866 twice weekly; for time-to-progression (days until body weight loss 20% or tumor volume 1,500 mm^3): cisplatin combination study, CDD866 once weekly
Procedure: Time-to-progression study was performed as a follow-up to assess if the combination of CDD866 and cisplatin or everolimus slows progression of cancer cachexia to the interruption criteria which was defined by body weight loss reaching to 20% or tumor volume exceeding 1,500 mm^3. The treatment regimen was the same as used in the therapeutic intervention study. Body weight and tumor volume were measured 2 to 3 times per week in the first 2 weeks and then every day until the end of experiment. The mice were euthanized with CO2, when body weight loss was close to 20% or tumor volume exceeded 1,500 mm^3.
as §3
Extensive tumor growth and subsequent body weight loss are important predictors of mortality in cancer patients. We therefore wanted to evaluate whether the combination of CDD866 and cisplatin has an impact on the length of survival. For ethical reason we abstained from classical survival studies. Instead, each mouse was individually euthanized when experiencing either a body weight loss exceeding 20% of initial body weight, or reaching a tumor volume of 1,500 mm^3, determined as time-to-progression.

[4] = cisplatin study, CT-26 tumor-bearing mice
[5] = cisplatin study, CT-26 tumor-bearing mice, normalized to initial body weight, versus non-tumor control

| Molecule | CT-26 tumor growth ([1]; everolimus study) | CT-26 tumor weight ([1]; everolimus study) | CT-26-induced loss in body weight ([1]; everolimus study) | CT-26-induced muscle weight loss ([1]; everolimus study) | weight of tibialis anterior, gastrocnemius-soleus-plantaris complex and quadriceps muscles in non-tumor bearing group [2] | body weight gain in non-tumor bearing group [2] | time-to-progression (median days elapsed until an interruption criterion) [3] | tumor progression / CT-26 tumor volume and weight [1, 4] | gastrocnemius muscle weight loss [1, 5] | tibialis anterior muscle wasting (muscle loss) [1, 5] | body weight loss (of initial body weight) ([1]; cisplatin study) | body weight in healthy control animals [2] | time-to-progression (days until body weight loss 20% or tumor volume 1,500 mm^3) [3] |
| --- | --- | --- | --- | --- | --- | --- | --- | --- | --- | --- | --- | --- | --- |
| CO[C@H]1C[C@@H]2CC[C@@H](C)[C@@](O)(O2)C(=O)C(=O)N2CCCC[C@H]2C(=O)O[C@H]([C@H](C)C[C@@H]2CC[C@@H](OCCO)[C@H](OC)C2)CC(=O)[C@H](C)/C=C(\C)[C@@H](O)[C@@H](OC)C(=O)[C@H](C)C[C@H](C)/C=C/C=C/C=C/1C [everolimus, (1R,9S,12S,15R,16E,18R,19R,21R,23S,24E,26E,28E,30S,32S,35R)-1,18-d ihydroxy-12-{(1 R)-2-[(1S,3R,4R)-4-(2-hydroxyethoxy)-3-methoxycyclohexyl]-1-methylethyl}-19,30-dimethoxy-15,17,21,23,29,35-hexamethyl-11,36-dioxa-4-aza-tricyclo[30.3.1.04,9]hexatriaconta-16,24,26,28-tetraene-2,3,10,14,20-pentaone] | slowed CT-26 tumor growth | significantly reduced | completely prevented | significantly reduced | not affected | not affected significantly | 23 days | – | – | – | – | – | – |
| N.N.[Cl][Pt][Cl] [cisplatin, cis-diamminedichloro-platinum(II)] | – | – | – | – | – | – | – | reduced CT-26 tumor weight to similar levels | 25% | 34% | 20% | did not affect body weight | 12 days |
| CDD866: murinized version of bimagrumab, where the human Fc region of the antibody has been replaced by a mouse Fc | – | no significant effect | completely prevented | significantly reduced | significantly increased | increased significantly | 21 days | neither accelerated tumor progression | 13% | – | 3% | marked body weight gain | 16 days |
